Laboratory results: patent US9226503B2, “Composition and method for attraction of emerald ash borer Agrilus planipennis fairmaire (coleoptera: buprestidae)” (Her Majesty the Queen in Right of Canada, as represented by …, priority 2011, dated 2016)

Experiments:
[1] = system: A. planipennis antennae; assay: EAG dose-response study; parameters: species or system Agrilus planipennis; conditions: 1 μg applied dose; n=80, 15 antennal preparations
Excerpt: EAG analyses were made by methods and equipment generally described by Cossé & and Bartelt (2000). EAG connections were made by inserting a glass-pipette silver-grounding electrode into the back of an excised beetle head. A second glass-pipette silver-recording probe was placed in contact with the distal end of one antenna. Both pipettes were filled with Beadle-Ephrussi (Ephrussi and Beadle 1936) saline.
For the EAG-dose-response study, (3Z)- and (3E)-lactones were purified (99.9% purity by GC/MS) by high performance liquid chromatography (HPLC) using a Waters 515 pump, a Waters R401 refractive index detector, and a 25 cm by 0.46 cm i.d. silica column (Adsorbosphere Silica 5 μm, Alltech, Deerfield, Ill.), treated with silver nitrate as described by Heath and Sonnett (1980). Solvent was 8% ether in hexane. Ten micro liters of serially diluted solutions (methylene chloride) of synthetic (3Z)-lactone and (3E)-lactone were applied to filter paper strips (0.5 cm×5 cm, Whatman no. 1). The filter paper strips were placed in 14-cm-long Pasteur pipettes, hereafter referred to as stimulus cartridges, after 5 min at room temperature. Stimulus doses tested were 0.01, 0.1, 1, 10, and 100 μg. Male and female antennae were exposed to single 0.2s puffs of odor-bearing air at 5 ml/s by placing the tip of an stimulus cartridge into a hole of a glass tube (0.7 cm ID×20 cm), 10 cm from the outlet and 11 cm away from the antennal preparation. Airflow through the glass tube was humidified and set at 10 ml/s. Puff duration and airflow speeds were maintained by a stimulus flow controller (SFC-2, Syntech, Hilversum, The Netherlands). Stimuli cartridges were selected in random order, beginning with the lowest dosages and working upward to the highest dosages. Each puffed dosage was preceded and followed by a puff from a solvent blank cartridge (filter paper plus solvent). To compensate for possible deterioration of the antennal preparation, a standard control compound, geranyl acetone (1 μg dose) preceded dosages of stimuli compound. EAG amplitudes were normalized according to the responses to geranyl acetone by dividing the amplitude of the EAG generated by the test compounds by that of geranyl acetone. Dose-response series were replicated, using different antennal preparation for each replication, and the EAG responses were expressed as a percentage of the EAG responses to geranyl acetone. Each antennal preparation was tested with freshly prepared sets of stimuli cartridges. Male and female EAG responses were submitted to analysis of variance (ANOVA) using Statistica for Windows software (StatSoft Inc. Tulsa, Okla.)).

[2] = system: A. planipennis; conditions: Silk et al. 2009; cited from earlier work
[3] = system: A. planipennis; conditions: background, cited studies; cited from earlier work
[4] = system: A. planipennis; assay: Two-choice Y-tube olfactometer assay; type: in vivo, Agrilus planipennis; conditions: (3Z)-hexenol 5 μg
Description: A Y-tube olfactometer (Analytical Research Systems Inc, Gainsville, Fla.) was used to test for attraction of A. planipennis to lactone isomers and host volatiles. […] Each arm was connected to a cylinder that contained the stimulus. Charcoal filtered air was passed into each arm at a flow rate of 1.2 L/min. Treatments included the pheromone alone: (3Z)-lactone (10 μg); (3E)-lactone (10 μg); and 60:40 (3E):(3Z)-lactone (10 μg). Next, we tested bark sesquiterpenes and a green leaf volatile alone: Phoebe oil (25 μg and 2.5 μg) and (3Z)-hexenol (5 μg). We then tested the pheromone combined with bark sesquiterpenes: (3Z)-lactone (10 μg)+Phoebe oil (at both 25 μg and 2.5 μg); (3E)-lactone (10 μg)+Phoebe oil (at both 25 μg and 2.5 μg). Finally, we tested the pheromone combined with the green leaf volatile: (3Z)-lactone (10 μg)+(3Z)-hexenol (5 μg); and (3E)-lactone (10 μg)+(3Z)-hexenol (5 μg). Each stimulus (l μl for single compound treatments and a total of 2 μl for two-compound treatments) was diluted in hexane, placed on a strip of filter paper and given one minute for the solvent to evaporate before being placed in the olfactometer. A second filter paper, treated with the equivalent volume of solvent was placed in the other arm of the olfactometer to serve as the control. The apparatus was rinsed with acetone after each treatment, and the arm attached to the test stimulus was randomized between replicates.
For each treatment, we tested increasing numbers of adults until we obtained a minimum of 12 beetles responding to the stimuli (either positively or negatively). To obtain this minimum, we tested 15-54 beetles per treatment. For each trial, a single A. planipennis (mature virgin male or female, >10 days old) was given ten minutes to choose between the two stimuli; adults were used only once in the bioassay. […] A chi-square test was conducted for each independent trial.

[5] = system: A. planipennis; assay: Field trapping 2011 experiment 2: (3Z)-lactone, (3Z)-hexenol and trap height factorial, dark green traps; type: in vivo, Agrilus planipennis; conditions: 2×2×2 factorial, lactone 3 mg/lure
Description: Two trapping experiments were conducted in green and white ash plantations (F. pennsylvanica Marsch and F. americana L.) located 40-60 km southeast of Sarnia, Ontario in 2011. Trees were 20-30 yr old, 5-8 m tall, 12-18 cm in diameter, and spaced 2-3 m apart within and between rows. Five sites were used in total: four were green ash and the fifth was a white ash plantation. Trees at four of the sites generally appeared healthy with few or no signs of decline and only a few with obvious signs and symptoms of infestation by A. planipennis. At the fifth site, obvious crown decline and signs of infestation were apparent on about one-quarter of trees.
Green prism sticky traps (0.30 cm×35.00 cm×58.75 cm) (Synergy Semiochemicals Corp., Burnaby, BC) were used in all field trials, deployed using modified umbrella rig spreaders (Zing Products, Westport, Mass.). Traps were spaced 20-25 m apart and lure treatments replicated in randomized complete block designs. Traps were deployed either using ropes tied between two trees or using a single line over a canopy branch, as described further below for each specific experimental objective. Traps were typically checked every 2 wk and A. planipennis were collected, counted, and sexed.
Experiment 2 was a 2×2×2 factorial experiment designed to test the effects of (3Z)-lactone, (3Z)-hexenol, trap height, and their interactions on numbers of A. planipennis captured on sticky, dark green (540-nm wavelength) (Francese et al 2010a) prism traps. Traps were baited with either (3Z)-lactone, (3Z)-hexenol, (3Z)-lactone+(3Z)-hexenol, or neither compound (unbaited control) and all treatments were deployed both below the canopy or in the mid-canopy. Traps placed below the canopy were suspended from ropes tied between two trees so the trap was 1-1.5 m from either tree and the top of the trap was 1.5-2 m above the ground. Traps in the canopy were deployed from a single line looped over a mid-canopy branch such that traps were 1-1.5 m from the main stem and their tops were 6 m above ground. (3Z)-Lactone was loaded onto rubber septa lures at a dosage of 3 mg/lure. Release rates of the (3Z)-lactone and (3Z)-hexenol were 60-70 μg/day and 50-100 mg/day, respectively at 25° C. Traps were in the field from 8 June-5 August, with one block at one site (Nauvoo Ranch), 5 blocks at a second site (LaSalle, the one white ash plantation), and 4 blocks at a third site (Brook Line). The 3 mg (3Z)-lactone lures were estimated to maintain adequate release rates for a minimum of three weeks and thus were replaced after three weeks; (3Z)-hexenol lures were not replaced during the experiment.
Numbers of A. planipennis captured in the trapping experiments were subjected to ANOVA separately for males and females. […]

[6] = females, low dose of Phoebe oil

Compound: CC(=O)CC/C=C(\C)CCC=C(C)C [geranyl acetone, reference compound]
- mean EAG response of antennae to standard (±SD) [1]: −0.06±0.03 mV

Compound: CCCCCCCCCCCCCCCCC(C)CCCCCCCC (centres unmarked) [9-methylpentacosane]
- copulatory activity in males upon antennal contact (literature) [2]: stimulates full copulatory activity in males

Compound: CC/C=C\CCO [(3Z)-hexenol]
- attractiveness to A. planipennis (literature) [3]: highly antennally active and attractive to males
- attraction of females in Y-tube olfactometer vs hexane control [4, 6]: slightly attracted
- females responded in Y-tube olfactometer [4, 6]: 75%
- attraction of males in Y-tube olfactometer vs hexane control ([4]; males, lactone 10 μg, chi-square test): highly attracted
- mean capture of males per trap, effect of presence of the lure component [5]: significantly and positively affected
- mean catch of females, effect of the lure component [5]: not
